These compounds were tested against T1, IDO1 (Homo sapiens, UniProt P14902) (assay: Cell-based (HeLa) assay for measurement of IDO1 inhibition (kynurenine levels in supernatant)). Conditions: H1-HeLa cells, IDO1 induced with IFNγ, 48 hour incubation, kynurenine read by absorbance at 480 nm; geometric mean of a minimum of four determinations.
T1 construct: HeLa cells were treated with a test compound in the presence of IFNγ, which induces IDO1 expression; host or cells: H1-HeLa cells, IDO1 induced with IFNγ
T1 sequence (P14902 whole entry): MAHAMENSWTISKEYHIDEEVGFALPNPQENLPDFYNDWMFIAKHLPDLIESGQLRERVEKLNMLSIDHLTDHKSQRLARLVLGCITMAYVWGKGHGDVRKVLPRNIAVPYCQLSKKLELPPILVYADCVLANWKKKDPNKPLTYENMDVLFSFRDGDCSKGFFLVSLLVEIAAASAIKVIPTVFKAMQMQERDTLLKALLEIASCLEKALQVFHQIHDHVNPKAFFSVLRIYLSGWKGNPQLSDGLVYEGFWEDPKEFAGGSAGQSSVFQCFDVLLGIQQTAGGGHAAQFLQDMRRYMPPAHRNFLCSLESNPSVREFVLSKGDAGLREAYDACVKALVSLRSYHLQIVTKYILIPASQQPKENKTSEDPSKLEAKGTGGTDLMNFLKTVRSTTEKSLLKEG
Description: Example B-1. Cell-Based (HeLa) Assay for Measurement of IDO1 Inhibition
To measure IDO1 inhibition in tissue culture, HeLa cells were treated with a test compound in the presence of IFNγ, which induces IDO1 expression. Following incubation, cell supernatants were assayed for kynurenine levels, an indicator of IDO1 activity.
The following day, the test compounds were added in DMSO (0.5% final) at various concentrations, and IDO1 was inducibly expressed by the addition of 50 uL/well of 50 ng/mL of INFγ (Peprotech #300-02) in cell plating media. As a positive control, 50 uL of the cell plating media without IFNγ was added to several wells. Following a 48 hour incubation, the plates were spun down at 1,200 RPM for 5 min at 10° C. 65 μL/well of the supernatant was then transferred to new 384-well plates (Thermo #262160) that contained 10 uL/well of 30% TCA (Sigma # TO699), and the plates were sealed and incubated at 60° C. for 30 min. The plates were then centrifuged for 15 min at 2,000 RPM at 10° C. 40 μL/well of the supernatant was transferred to new 384-well plates (Thermo #262160) and was reacted with 40 μL/well of 2% (w/v) p-dimethlyaminobenzaldehyde (Sigma #156417) in glacial acetic acid (Sigma #A6283). The reaction was incubated at room temperature for 10 min and absorbance at 480 nm was read using a PerkinElmer Envision plate reader.
Data in Table 1 were normalized based on positive (−IFNγ) and negative (+IFNγ) controls and EC50 values were calculated from the fit of the dose—response curves to a four-parameter equation. All EC50 values represent geometric mean values of a minimum of four determinations. These assays generally produced results within 2-fold of the reported mean

Compared with `CC1(C)Oc2c(-c3ccc(C(F)(F)F)c(C(=O)Nc4ccc(F)cc4)c3)cccc2N(c2cnccn2)C1=O` [Example 55, 5-(2,2-dimethyl-3-oxo-4-(pyrazin-2-yl)-3,4-dihydro-2H-benzo[b][1,4]-oxazin-8-yl)-N-(4-fluorophenyl)-2-(trifluoromethyl)benzamide], `CC1(C)C(=O)N(c2cccnc2)c2cccc(-c3cnc(C(F)(F)F)c(C(=O)Nc4ccccc4)c3)c21` [Example 58, 5-(3,3-dimethyl-2-oxo-1-(pyridin-3-yl)indolin-4-yl)-N-phenyl-2-(trifluoromethyl)nicotinamide] is 1.9-fold lower in EC50: 101 nM for the first, 53 nM for the second.

`CC1(C)C(=O)N(c2cccnc2)c2cccc(-c3ccc(C(F)(F)F)c(-c4nc5cc(F)ccc5[nH]4)c3)c21` [Example 56, 4-(3-(5-fluoro-1H-benzo[d]imidazol-2-yl)-4-(trifluoromethyl)phenyl)-3,3-dimethyl-1-(pyridin-3-yl)indolin-2-one] showed an EC50 of 3030 nM.
